Columns and labels:
Assay type in all cases: in vivo
[1] = tested on: barnyardgrass (Echinochloa crus-galli, ECHCG); assay: Post-emerge test, greenhouse herbicide activity screening; conditions: phytotoxicity rating 0-100 (0 no damage, 100 complete death), 14 days after application
In short: (§1)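 Compounds in acetone were track-sprayed at 15-1000 g ai/ha (187 l/ha) on sandy loam pots: pre-emerge one day after seeding, post-emerge at 2-3 leaf stage with 0.25% v/v non-ionic surfactant. Phytotoxicity was rated 14 days later on a 0 (no damage) to 100 (complete death) scale.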

[2] = tested on: ivyleaf morningglory (Ipomoea hederacea, IPOHE); assay: as above; conditions: phytotoxicity rating 0-100 (0 no damage, 100 complete death), 14 days after application
In short: as §1

[3] = tested on: velvetleaf (Abutilon theophrasti, ABUTH); assay: as above; conditions: phytotoxicity rating 0-100 (0 no damage, 100 complete death), 14 days after application
In short: as §1

[4] = tested on: johnsongrass (Sorghum halepense, SORHA); assay: as above; conditions: phytotoxicity rating 0-100 (0 no damage, 100 complete death), 14 days after application
In short: as §1

[5] = tested on: common ragweed (Ambrosia artemisizfolia L., AMBEL); assay: as above; conditions: phytotoxicity rating 0-100 (0 no damage, 100 complete death), 14 days after application
In short: as §1

[6] = tested on: sicklepod (Cassia obtusifolia, CASOB); assay: as above; conditions: phytotoxicity rating 0-100 (0 no damage, 100 complete death), 14 days after application
In short: as §1

[7] = tested on: green foxtail (Setaria viridis, SETVI); assay: as above; conditions: phytotoxicity rating 0-100 (0 no damage, 100 complete death), 14 days after application
In short: as §1

[8] = tested on: redroot pigweed (Amaranthus retroflexus, AMARE); assay: as above; conditions: phytotoxicity rating 0-100 (0 no damage, 100 complete death), 14 days after application
In short: as §1

[9] = tested on: large crabgrass (Digitaria sanguinalis, DIGSA); assay: as above; conditions: phytotoxicity rating 0-100 (0 no damage, 100 complete death), 14 days after application
In short: as §1

[10] = tested on: lambsquarters (Chenopodium album, CHEAL); assay: as above; conditions: phytotoxicity rating 0-100 (0 no damage, 100 complete death), 14 days after application
In short: as §1

[11] = tested on: redroot pigweed (Amaranthus retroflexus, AMARE); assay: Pre-emerge test, greenhouse herbicide activity screening; conditions: pre-emerge, rated 14 days after application, 0 = no damage, 100 = complete death
In short: (§2)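 Compounds in acetone were track-sprayed at 187 l/ha, 15–1000 g ai/ha, onto sandy loam pots. Pre-emerge seeds were sown one day before spraying, with surface watering afterwards. Post-emerge plants were at the 2–3 leaf stage and sprayed with 0.25% v/v non-ionic surfactant. Injury was rated 0–100 at 14 days.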

[12] = tested on: upland rice (Oryza sp., var. Tebonnet, RICE); assay: Post-emerge test, crop safety; conditions: phytotoxicity rating 0-100 (0 no damage, 100 complete death), 14 days after application
In short: as §2

[13] = tested on: field corn (Zea mays L., var. Dekalb 535, CORN); assay: Post-emerge test, crop safety; conditions: phytotoxicity rating 0-100 (0 no damage, 100 complete death), 14 days after application
In short: as §2

[14] = tested on: barnyardgrass (Echinochloa crus-galli, ECHCG); assay: Pre-emerge test, greenhouse herbicide activity screening; conditions: pre-emerge, rated 14 days after application, 0 = no damage, 100 = complete death
In short: as §2

[15] = tested on: ivyleaf morningglory (Ipomoea hederacea, IPOHE); assay: as above; conditions: pre-emerge, rated 14 days after application, 0 = no damage, 100 = complete death
In short: as §2

[16] = tested on: velvetleaf (Abutilon theophrasti, ABUTH); assay: as above; conditions: pre-emerge, rated 14 days after application, 0 = no damage, 100 = complete death
In short: as §2

[17] = tested on: johnsongrass (Sorghum halepense, SORHA); assay: as above; conditions: pre-emerge, rated 14 days after application, 0 = no damage, 100 = complete death
In short: as §2

[18] = tested on: common ragweed (Ambrosia artemisizfolia L., AMBEL); assay: as above; conditions: pre-emerge, rated 14 days after application, 0 = no damage, 100 = complete death
In short: as §2

[19] = tested on: sicklepod (Cassia obtusifolia, CASOB); assay: as above; conditions: pre-emerge, rated 14 days after application, 0 = no damage, 100 = complete death
In short: as §2

[20] = tested on: green foxtail (Setaria viridis, SETVI); assay: as above; conditions: pre-emerge, rated 14 days after application, 0 = no damage, 100 = complete death
In short: as §2

[21] = tested on: large crabgrass (Digitaria sanguinalis, DIGSA); assay: as above; conditions: pre-emerge, rated 14 days after application, 0 = no damage, 100 = complete death
In short: as §2

[22] = tested on: lambsquarters (Chenopodium album, CHEAL); assay: as above; conditions: pre-emerge, rated 14 days after application, 0 = no damage, 100 = complete death
In short: as §2

[23] = tested on: upland rice (Oryza sp., var. Tebonnet, RICE); assay: Pre-emerge test, crop safety; conditions: pre-emerge, rated 14 days after application, 0 = no damage, 100 = complete death
In short: as §1

[24] = tested on: field corn (Zea mays L., var. Dekalb 535, CORN); assay: Pre-emerge test, crop safety; conditions: pre-emerge, rated 14 days after application, 0 = no damage, 100 = complete death
In short: as §1

## COc1c(Cl)cc(F)c(-n2c(=O)cc(C(F)(F)F)n(C)c2=O)c1NC(=O)C(F)(F)F [2-10]
[1]; 63 g ai/ha
  Post-emerge Herbicidal Activity ECHCG: 0
[1]; 250 g ai/ha
  Post-emerge Herbicidal Activity ECHCG: 60
[2]; 63 g ai/ha
  Post-emerge Herbicidal Activity IPOHE: 60
[2]; 250 g ai/ha
  Post-emerge Herbicidal Activity IPOHE: 100
[3]; 63 g ai/ha
  Post-emerge Herbicidal Activity ABUTH: 95
[3]; 250 g ai/ha
  Post-emerge Herbicidal Activity ABUTH: 100
[4]; 63 g ai/ha
  Post-emerge Herbicidal Activity SORHA: 0
[4]; 250 g ai/ha
  Post-emerge Herbicidal Activity SORHA: 20
[5]; 63 g ai/ha
  Post-emerge Herbicidal Activity AMBEL: 0
[5]; 250 g ai/ha
  Post-emerge Herbicidal Activity AMBEL: 50
[6]; 63 g ai/ha
  Post-emerge Herbicidal Activity CASOB: 0
[6]; 250 g ai/ha
  Post-emerge Herbicidal Activity CASOB: 10
[7]; 63 g ai/ha
  Post-emerge Herbicidal Activity SETVI: 0
[7]; 250 g ai/ha
  Post-emerge Herbicidal Activity SETVI: 70
[8]; 63 g ai/ha
  Post-emerge Herbicidal Activity AMARE: 0
[8]; 250 g ai/ha
  Post-emerge Herbicidal Activity AMARE: 30
[9]; 63 g ai/ha
  Post-emerge Herbicidal Activity DIGSA: 0
[9]; 250 g ai/ha
  Post-emerge Herbicidal Activity DIGSA: 40
[10]; 63 g ai/ha
  Post-emerge Herbicidal Activity CHEAL: 50
[10]; 250 g ai/ha
  Post-emerge Herbicidal Activity CHEAL: 90
[11]; 63 g ai/ha
  Pre-emerge Herbicidal Activity AMARE (phytotoxicity rating, scale 0-100): 50
[11]; 250 g ai/ha
  Pre-emerge Herbicidal Activity AMARE (phytotoxicity rating, scale 0-100): 100
[12]; 63 g ai/ha
  Post-emerge Herbicidal Activity RICE (crop damage): 0
[12]; 250 g ai/ha
  Post-emerge Herbicidal Activity RICE (crop damage): 5
[13]; 63 g ai/ha
  Post-emerge Herbicidal Activity CORN (crop damage): 5
[13]; 250 g ai/ha
  Post-emerge Herbicidal Activity CORN (crop damage): 0
[14]; 63 g ai/ha
  Pre-emerge Herbicidal Activity ECHCG (phytotoxicity rating, scale 0-100): 0
[14]; 250 g ai/ha
  Pre-emerge Herbicidal Activity ECHCG (phytotoxicity rating, scale 0-100): 95
[15]; 63 g ai/ha
  Pre-emerge Herbicidal Activity IPOHE (phytotoxicity rating, scale 0-100): 60
[15]; 250 g ai/ha
  Pre-emerge Herbicidal Activity IPOHE (phytotoxicity rating, scale 0-100): 100
[16]; 63 g ai/ha
  Pre-emerge Herbicidal Activity ABUTH (phytotoxicity rating, scale 0-100): 100
[16]; 250 g ai/ha
  Pre-emerge Herbicidal Activity ABUTH (phytotoxicity rating, scale 0-100): 100
[17]; 63 g ai/ha
  Pre-emerge Herbicidal Activity SORHA (phytotoxicity rating, scale 0-100): 0
[17]; 250 g ai/ha
  Pre-emerge Herbicidal Activity SORHA (phytotoxicity rating, scale 0-100): 80
[18]; 63 g ai/ha
  Pre-emerge Herbicidal Activity AMBEL (phytotoxicity rating, scale 0-100): 100
[18]; 250 g ai/ha
  Pre-emerge Herbicidal Activity AMBEL (phytotoxicity rating, scale 0-100): 100
[19]; 63 g ai/ha
  Pre-emerge Herbicidal Activity CASOB (phytotoxicity rating, scale 0-100): 50
[19]; 250 g ai/ha
  Pre-emerge Herbicidal Activity CASOB (phytotoxicity rating, scale 0-100): 90
[20]; 63 g ai/ha
  Pre-emerge Herbicidal Activity SETVI (phytotoxicity rating, scale 0-100): 40
[20]; 250 g ai/ha
  Pre-emerge Herbicidal Activity SETVI (phytotoxicity rating, scale 0-100): 100
[21]; 63 g ai/ha
  Pre-emerge Herbicidal Activity DIGSA (phytotoxicity rating, scale 0-100): 90
[21]; 250 g ai/ha
  Pre-emerge Herbicidal Activity DIGSA (phytotoxicity rating, scale 0-100): 95
[22]; 63 g ai/ha
  Pre-emerge Herbicidal Activity CHEAL (phytotoxicity rating, scale 0-100): 100
[22]; 250 g ai/ha
  Pre-emerge Herbicidal Activity CHEAL (phytotoxicity rating, scale 0-100): 100
[23]; 63 g ai/ha
  Pre-emerge crop damage RICE (phytotoxicity rating, scale 0-100): 0
[23]; 250 g ai/ha
  Pre-emerge crop damage RICE (phytotoxicity rating, scale 0-100): 30
[24]; 63 g ai/ha
  Pre-emerge crop damage CORN (phytotoxicity rating, scale 0-100): 0
[24]; 250 g ai/ha
  Pre-emerge crop damage CORN (phytotoxicity rating, scale 0-100): 40

From US6355799B1, “Substituted benzene compounds, process for their preparation, and herbicidal and defoliant compositions containing them” (ISK Americas Incorporated, priority 1997, dated 2002)
